# Reference: US8106055B2, “Substituted amide compounds” (Gruenenthal GmbH, priority 2007, dated 2012)
# Target: T1, human μ opiate receptor (Homo sapiens, UniProt P35372)
# T1 construct: purchased PerkinElmer Life Sciences, Zaventem, Belgium RB-HOM; host or cells: CHO-K1 cells (membrane preparation)
# Experiment: Affinity for the human μ opiate receptor ([3H]-naloxone displacement, CHO-K1 receptor membrane preparation, SPA)
# Format: binding
# Conditions: 1.5 h, Table 2; test concentration 1 μM; read-out: μ receptor
# In short: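 Test compounds, 1 nmol/l [3H]-naloxone and CHO-K1 membranes bearing the human μ opiate receptor are combined with WGA-SPA beads. After 90 minutes at room temperature, plates are centrifuged and radioactivity counted. Specific-binding inhibition at 1 μmol/l is given in percent.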
# T1 sequence (P35372 whole entry): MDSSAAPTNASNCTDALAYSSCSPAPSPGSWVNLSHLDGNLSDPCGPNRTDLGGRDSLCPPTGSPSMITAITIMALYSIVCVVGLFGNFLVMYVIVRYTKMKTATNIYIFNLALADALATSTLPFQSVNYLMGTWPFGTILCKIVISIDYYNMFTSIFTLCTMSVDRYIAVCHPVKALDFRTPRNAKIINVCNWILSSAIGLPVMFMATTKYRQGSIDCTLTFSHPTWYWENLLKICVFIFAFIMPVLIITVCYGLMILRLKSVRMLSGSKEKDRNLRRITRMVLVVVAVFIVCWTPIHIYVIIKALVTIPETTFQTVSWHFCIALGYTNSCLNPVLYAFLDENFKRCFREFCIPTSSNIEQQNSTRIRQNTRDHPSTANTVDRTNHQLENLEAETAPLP
row,SMILES,inhibition at 1 µM
1,"O=C(COCCN(C1CC1)S(=O)(=O)c1c(Cl)cc(Cl)cc1Cl)NC1CCC(C(c2ccccc2)N2CCCC2)CC1 (stereo not drawn) [Example 603, 2-{2-[cyclopropyl-(2,4,6-trichlorobenzenesulfonyl)-amino]-ethoxy}-N-[4-(phenylpyrrolidin-1-ylmethyl)-cyclohexyl]-acetamide]",45%
2,"CN(CCOCC(=O)NC1CCC(C(c2ccccc2)N2CCCC2)CC1)S(=O)(=O)c1c(Cl)cc(Cl)cc1Cl (stereo not drawn) [Example 606, 2-{2-[methyl-(2,4,6-trichlorobenzenesulfonyl)-amino]-ethoxy}-N-[4-(phenylpyrrolidin-1-yl-methyl)-cyclohexyl]-acetamide]",46%
3,"CN(C)C(c1ccccc1)C1CCC(NC(=O)COC2CCCN(S(=O)(=O)c3c(Cl)cc(Cl)cc3Cl)C2)CC1 (stereo not drawn) [Example 608, N-[4-(dimethylaminophenylmethyl)-cyclohexyl]-2-[1-(2,4,6-trichlorobenzenesulfonyl)-piperidin-3-yloxy]-acetamide]",89%
4,"CN(C)C(c1ccccc1)C1CCC(NC(=O)COC2CCN(S(=O)(=O)c3c(Cl)cc(Cl)cc3Cl)C2)CC1 (stereo not drawn) [Example 609, N-[4-(dimethylaminophenylmethyl)-cyclohexyl]-2-[1-(2,4,6-trichlorobenzenesulfonyl)-pyrrolidin-3-yloxy]-acetamide]",94%
5,"CN(C)C(c1ccccc1)C1CCC(NC(=O)COCC2CCCN2S(=O)(=O)c2c(Cl)cc(Cl)cc2Cl)CC1 (stereo not drawn) [Example 611, N-[4-(Dimethylaminophenylmethyl)-cyclohexyl]-2-[1-(2,4,6-trichlorobenzenesulfonyl)-pyrrolidin-2-ylmethoxy]-acetamide]",93%
6,"CN(C)C(c1ccccc1)C1CCC(CNC(=O)COCCN(C)S(=O)(=O)c2c(Cl)cc(Cl)cc2Cl)CC1 (stereo not drawn) [Example 614, N-[4-(dimethylaminophenylmethyl)-cyclohexylmethyl]-2-{2-[(2,4,6-trichlorobenzenesulfonyl)-methylamino]-ethoxy}-acetamide]",96%
7,"CN(C)C(c1ccccc1)C1CCC(NC(=O)COCCN(C)S(=O)(=O)c2c(Cl)cc(Cl)cc2Cl)C1 (stereo not drawn) [Example 615, N-[3-(dimethylaminophenylmethyl)-cyclopentyl]-2-{2-[(2,4,6-trichlorobenzenesulfonyl)-methylamino]-ethoxy}-acetamide]",89%

# Same assay, conditions: Table 2; test concentration 1 μM
row,SMILES,μ receptor
1,"CN(C)C(c1ccccc1)C1CCC(NC(=O)COCC2CCCN2S(=O)(=O)c2c(Cl)cc(Cl)cc2Cl)CC1 (stereo not drawn) [Example 612, N-[4-(Dimethylaminophenylmethyl)-cyclohexyl]-2-[1-(2,4,6-trichlorobenzenesulfonyl)-pyrrolidin-2-ylmethoxy]-acetamide]",88 % inhibition
2,"CN(C)C(c1ccccc1)C1CCC(NC(=O)COCC2CCCN2S(=O)(=O)c2c(Cl)cc(Cl)cc2Cl)CC1 (stereo not drawn) [Example 613, N-[4-(Dimethylaminophenylmethyl)-cyclohexyl]-2-[1-(2,4,6-trichlorobenzenesulfonyl)-pyrrolidin-2-ylmethoxy]-acetamide]",90 % inhibition

# Same assay, conditions: test concentration of 1 μM
row,SMILES,"μ (binding on the μ opioid receptor, % inhibition)"
1,COc1ccc(S(=O)(=O)N2CCC(OCC(=O)NCCC3CCC(C(c4cccc(F)c4)N(C)C)CC3)C2)cc1OC (stereo not drawn) [Example 262],82%
2,CN(C)C(c1ccc(Cl)cc1)C1CCC(CNC(=O)COCCN(C)S(=O)(=O)c2ccc(F)cc2)CC1 (stereo not drawn) [Example 263],72%
3,Cc1cc(C)c(S(=O)(=O)N2CCC(OCC(=O)NCCC3CCC(C(c4cccc(F)c4)N(C)C)CC3)C2)c(C)c1 (stereo not drawn) [Example 264],77%
4,COc1cc(C)c(S(=O)(=O)N2CCC(OCC(=O)NCC3CCC(C(c4cccc(F)c4)N(C)C)CC3)C2)c(C)c1 (stereo not drawn) [Example 265],79%
5,CN(C)C(c1cccc(F)c1)C1CCC(NC(=O)COCC2CCCN(S(=O)(=O)c3ccccc3)C2)CC1 (stereo not drawn) [Example 266],74%
6,CN(C)C(c1ccc(F)cc1)C1CCC(CNC(=O)COCC2CCCN2S(=O)(=O)c2ccc(Cl)c(Cl)c2)CC1 (stereo not drawn) [Example 267],73%
7,COc1ccc(S(=O)(=O)N2CCCC2COCC(=O)NC2CCC(C(c3cccc(F)c3)N(C)C)CC2)cc1 (stereo not drawn) [Example 268],70%
8,CN(C)C(c1ccc(Cl)cc1)C1CCC(CNC(=O)COC2CCCCC2N(C)S(=O)(=O)c2ccc(Cl)c(Cl)c2)CC1 (stereo not drawn) [Example 269],74%
9,CN(C)C(c1cccc(F)c1)C1CCC(NC(=O)COC2CCN(S(=O)(=O)c3ccccc3)C2)CC1 (stereo not drawn) [Example 271],72%
10,Cc1ccc(S(=O)(=O)N2CCC(OCC(=O)NCCC3CCC(C(c4cccs4)N(C)C)CC3)C2)cc1 (stereo not drawn) [Example 272],73%
11,Cc1ccc(S(=O)(=O)N(C)CCOCC(=O)NCC2CCC(C(c3ccc(Cl)cc3)N(C)C)CC2)cc1 (stereo not drawn) [Example 273],68%
12,CN(C)C(c1ccc(Cl)cc1)C1CCC(CCNC(=O)COCCN(C)S(=O)(=O)c2c(Cl)cccc2Cl)CC1 (stereo not drawn) [Example 274],68%
13,CN(C)C(c1cccc(F)c1)C1CCC(CNC(=O)COC2CCN(S(=O)(=O)c3ccc(F)cc3)C2)CC1 (stereo not drawn) [Example 275],71%
14,CN(C)C(c1cccs1)C1CCC(CNC(=O)COC2CCN(S(=O)(=O)c3ccccc3)CC2)CC1 (stereo not drawn) [Example 276],78%
15,CN(C)C(c1cccc(F)c1)C1CCC(NC(=O)COC2CCCN(S(=O)(=O)c3ccccc3)C2)CC1 (stereo not drawn) [Example 277],68%
